The record followed here is US7605164B2, “Compositions and methods for treating heart failure” (Cytokinetics, Inc., priority 2001, dated 2009).

As usually defined, the melting point is the temperature of the solid-liquid transition.

As to `O=C(Nc1cc(Oc2cccnc2)cc(-c2ccccn2)c1)c1ccc(F)cc1` [Example 2, 4-Fluoro-N-[3-pyridin-2-yl-5-(pyridin-3-yloxy)-phenyl]-benzamide], the melting point lay in the range of 160 to 162 °C.
